Results as given in US20060189539A1, “Novel GnRH analogues with antitumour effects and pharmaceutical compositions thereof” (priority 1994, published 2006).
Non-standard residues stand in square brackets, D forms with d. Residues, ends and D or L forms follow the SMILES beside them. Groups on a side chain read outwards from the residue. *: point of attachment. dPhe(4-Cl) = N[C@H](Cc1ccc(Cl)cc1)C(=O)O; NEt2 = CCN(CC)*

Key:
MCF-7 xenograft = experiment: In vivo antitumour effect on MCF-7 xenograft; set-up: species or system immunosuppressed CBA/Ca mice; conditions: 2 × 25 μg
Protocol: The immunosuppression of mice was carried out by using the method of Steel et al. (1978).
CBA/Ca female mice of about 6 weeks old were thymectomized and then, after one week, they were irradiated with 60Co (whole body irradiation; the lethal dose is 9.5 Gray). Within 24 hours 3 to 5×10^5 myelocytes were injected to the animals. Beneath the skin of the immunosuppressed mice 2×10^7 tumour cells or, in the case of later passages, about 2 mm^3 of tumour cells or in the case of later, additional passages about 2 mm^3 of tumour pieces were implanted. […] The treatment with steroid hormone was stopped by at least one week before beginning the investigation.
In the case of MCF-7 tumours (xenografts) the examinations were carried out with passages being in the phase of the 37th and 38th, respectively, transplantations.
In the case of mice bearing MCF-7 xenograft, the treatment was begun in the 4th week following xeno-transplantation.
Recent investigations have begun on 28 animals bearing MCF-7 xenograft .and on 28 animals bearing MDA-MB-231 xenograft. On animals bearing MCF-7 tumour the treatment was commenced in the 5th week following xeno-transplantation; the tumour volume was 205 to 225 mm^3. On animals bearing MDA-MB-231 tumour, the treatment was started in the 4th week after xeno-transplantation with a tumour volume of 140 to 150 mm^3. […] The control groups were daily treated with physiological saline s.c. (Each treated group consisted of 7 animals.)

B-lymphocytes = experiment: Humoral immune response (antibody production of B-lymphocytes); assay type: in vivo, mice; conditions: for Increase of the humoral immune response: mice
T-lymphocytes = experiment: Cellular immune response (rosette formation against BRBC antigen); assay type: in vivo, mice
Excerpt: The immunosuppressive side effect of cytostatics used in tumour therapy is commonly known. This effect can be compensated to a certain grade by various immunostimulants (endotoxin, levamisole). Polypeptides with much […] molecular weights (about 40,000 to 80,000) are also capable of protecting against immunosuppressive effect [Gal et al.: J. Biol. Resp. Modif. 5, 148-159 (1986)). The molecular weight of the novel polyanionic P-GFLG-OH macromolecule tested by us is about 10,000, that of MI-1892 is about 2000, i.e. relatively low; therefore, their immunostimulatory activity was unexpected.

[1] = tested on: Ishikawa human endometrium carcinoma cell line; experiment: Inhibition of colony formation (dose-survival), Example 18; assay type: cell-based; conditions: 50 μM
Excerpt: (§1) Human cell lines used in in vitro experiments. MCF-7 human mammary tumour cell line was stabilized in 1973 by Soule et al. from the pleural fluid of mammary carcinoma patients. The cells grow in monolayer and are epithelial in their character. MDA-MB-231 human mammary carcinoma cell line was isolated and stabilized in 1974 by Cailleau et al. similarly from pleural fluid. These cells also grow in monolayer. PC3 human prostate carcinoma cell line was stabilized 20 in 1979 in cell culture by Kaighn et al.; the cells are of simple epithelium type and form compact colonies in clonogenic assays. Ishikawa cell line originated from adenocarcinoma of human endometrium [Nishida et al.: Obstet. Gynecol. Jpn, 37, 25 1103-1111 (1985)], has epithelial character and contains steroid as well as GnRH receptors. Human tumour cell lines are maintained in plastic flasks (Greiner) in Dulbecco-6modified Eagle-MEM (DMEM GIBCO) nutritive medium. The medium used herein contained 10% of fetal calf serum (FCS).
(§2) In the case of cytostatics the cell-damaging effect is not cell-specific. […] One part of the arrested cells again go into the cycle, the other part may perish (apoptosis). […] The investigations were carried out on MCF-7 and MDA-MB-231 human mammary carcinoma cell lines, PC3 human prostate 15 carcinoma cell line and Ishikawa human endometrium carcinoma cell line. Threehundred cells were set into Petri dishes of 3.5 cm in diameter each. The treatment was carried out once, 24 hours following the explantation, then the colonies formed were counted after 9 to 12 days.

[2] = tested on: MCF-7 human mammary carcinoma cell line; experiment: as above; assay type: cell-based; conditions: 50 μM
Excerpt: as §1, §2

[3] = tested on: MDA-MB-231 human mammary carcinoma cell line; experiment: as above; assay type: cell-based; conditions: 50 μM
Excerpt: as §1, §2

[4] = tested on: PC3 human prostate carcinoma cell line; experiment: as above; assay type: cell-based
Excerpt: as §1, §2

[5] = tested on: MCF-7 human mammary carcinoma cell line; experiment: Inhibition of colony formation (dose-survival), Example 48; assay type: cell-based; conditions: 50 μM
Excerpt: MCF-7 human mammary carcinoma cell line was stabilized in 1973 by Soule et al. from the pleural fluid of a patient suffering from mammary carcinoma. MDA-MB-231 human mammary carcinoma cell line was isolated and stabilized by Cailleau et al. in 1974 similarly from pleural fluid. Both cell lines grow in monolayer. […] MCF-7 cell line is estradiol receptor (ER)-positive containing proteins specifically binding GnRH. Thus, it represents, a useful model system for investigating the direct effect of GnRH mediated by the GnRH receptor. Being ER-negative and GnRH receptor-positive, MDA-MB-231 cell line is similarly suitable to study the direct effect of GnRH. PC3 human prostate carcinoma cell line was stabilized in cell culture by Kaighn et al. in 1979. The cells are of epithelial type and form compact colonies in clonogenic assays. The Ishikawa cell line originates from human endometrial adenocarcinoma [M. Nishida et al.: Acta Obstet. Gynecol. Jpn. 37, 1103-1111 (1985)], it is epithelial in its character and contains steroid-as well as GnRH receptors. The examination gives accurate information about the cell-damaging effect of the substance tested as a function of varying doses. The treatment was carried out once; the colonies formed from the surviving cells were counted after 8-12 days. […] A part of the arrested cells again entered the cycle, an other part of them might be destroyed (apoptosis). […] The treatment was once carried out 24 hours after setting, then the colonies formed were counted after 8-12 days. The cells were treated once after 24 hours with 1-50 μM of various GnRH analogues of Examples above or with 1-50 μM of GnRH-III, respectively. The percentages of inhibition obtained on MCF-7, MDA-MB-231, PC3 and Ishikawa cells, respectively, together with the dose of the active agent used are shown in Table VIII.

[6] = tested on: MDA-MB-231 human mammary carcinoma cell line; experiment: as above; assay type: cell-based
Excerpt: (§3) MCF-7 human mammary carcinoma cell line was stabilized in 1973 by Soule et al. from the pleural fluid of a patient suffering from mammary carcinoma. MDA-MB-231 human mammary carcinoma cell line was isolated and stabilized by Cailleau et al. in 1974 similarly from pleural fluid. Both cell lines grow in monolayer. MCF-7 and MDA-MB-231 human mammary carcinoma cell lines are maintained in plastic flasks (Greiner), in Dulbecco-modified Eagle-MEM (DMEM, GIBCO) liquid nutrient medium containing 10% of fetal calf serum. MCF-7 cell line is estradiol receptor (ER)-positive containing proteins specifically binding GnRH. Thus, it represents, a useful model system for investigating the direct effect of GnRH mediated by the GnRH receptor. Being ER-negative and GnRH receptor-positive, MDA-MB-231 cell line is similarly suitable to study the direct effect of GnRH. PC3 human prostate carcinoma cell line was stabilized in cell culture by Kaighn et al. in 1979. The cells are of epithelial type and form compact colonies in clonogenic assays. The Ishikawa cell line originates from human endometrial adenocarcinoma [M. Nishida et al.: Acta Obstet. Gynecol. Jpn. 37, 1103-1111 (1985)], it is epithelial in its character and contains steroid-as well as GnRH receptors.
(§4) The examination gives accurate information about the cell-damaging effect of the substance tested as a function of varying doses. The treatment was carried out once; the colonies formed from the surviving cells were counted after 8-12 days. […] A part of the arrested cells again entered the cycle, an other part of them might be destroyed (apoptosis). […] In the case of a dose-response investigation, colonies containing less than 15 cells were not counted. 300 cells were put into each Petri dishes of 3.5 cm in diameter. The treatment was once carried out 24 hours after setting, then the colonies formed were counted after 8-12 days. The cells were treated once after 24 hours with 1-50 μM of various GnRH analogues of Examples above or with 1-50 μM of GnRH-III, respectively. The percentages of inhibition obtained on MCF-7, MDA-MB-231, PC3 and Ishikawa cells, respectively, together with the dose of the active agent used are shown in Table VIII.

[7] = tested on: Ishikawa endometrium tumour cell culture; experiment: as above; assay type: cell-based, human; conditions: 50 μM
Excerpt: as §3, §4

[8] = tested on: PC3 prostate tumour cell culture; experiment: as above; assay type: cell-based, human
Excerpt: as §3, §4

human tumor cell lines = experiment: Colony formation, Example 48, comparison with control D-Trp6-hGnRH; assay type: cell-based; conditions: data of Table VIII
Protocol: as §4
In these studies the D-Trp6-hGnRH analogue (Sigma Co.) commonly used in the tumour therapy was employed as control.

[9] = tested on: Ishikawa human endometrium tumour cells; conditions: 30 μM of active substance, conjugate, treated once
Excerpt: (§5) The procedure of treatment was as follows. After trypsinization the cells, 400,000 cells of MCF-7, MDA-MB-231 human mammary carcinoma, PC3 human prostate carcinoma or Ishikawa human endometrium tumour each were passed into Petri dishes of 10 cm in diameter. […]

[10] = tested on: PC3 human prostate carcinoma cells; experiment: In vitro inhibition of cell proliferation (cell count), Example 19; assay type: cell-based; conditions: 30 μM of active substance, conjugate, treated once
Protocol: as §5, with “diameter. Starting from the day following transfer, the cells were treated with the substances to be tested in solution prepared with the nutrient medium during the exponential growth phase.” for “diameter.”

## CCN(CC)C(=O)[C@H](CC(=O)N[C@@H](CC(C)C)C(=O)N[C@@H](CCC(N)=O)C(=O)N1CCC[C@H]1C(=O)N[C@H](C)C(N)=O)NC(=O)[C@H](CCCCN)NC(=O)[C@H](CO)NC(=O)[C@@H](Cc1c[nH]c2ccccc12)NC(=O)[C@@H](Cc1ccc(Cl)cc1)NC(=O)[C@@H](Cc1c[nH]c2ccccc12)NC(C)=O [MI-1892, Ac-D-Trp^1,3,D-Cpa^2,Lys^5,[β-Asp(DEA)]^6,D-Ala^10-hGnRH, reference compound] (Ac-[dW][dPhe(4-Cl)][dW]SKD([Leu-Gln-Pro-dA-NH2])-NEt2)
MCF-7 xenograft; week 4
  Inhibition %: 22.5%
MCF-7 xenograft; week 6
  Inhibition %: 21%
B-lymphocytes; dose not stated
  Effect on the humoral immune response: strengthened
B-lymphocytes; 50 μg/mouse
  Increase of the humoral immune response: more than twofold
B-lymphocytes; 100 μg/mouse
  Increase of the humoral immune response: threefold
T-lymphocytes; 100 μg/mouse
  Increase of the cellular immune response: nearly twofold
T-lymphocytes; dose not stated
  Effect on the cellular immune response (activity of T-lymphocytes against BRBC antigen): increased

## {Lys[n-poly(N-vinylpyrrolidone-co-maleic acid)-Gly-Phe-Leu-Gly-]}4,-GnRH-III [P-GFLG-Lys4-GnRH-III]
[1]
  % Inhibition of colony formation: 25%
[2]
  % Inhibition of colony formation: 68%
[3]
  % Inhibition of colony formation: 75%
[4]; 30 μM
  % Inhibition of colony formation: 94%

## NCCCC[C@H](NC(=O)[C@H](Cc1c[nH]c2ccccc12)NC(=O)[C@H](Cc1c[nH]cn1)NC(=O)[C@@H]1CCC(=O)N1)C(=O)N[C@@H](Cc1c[nH]cn1)C(=O)N[C@@H](CC(=O)O)C(=O)N[C@@H](Cc1c[nH]c2ccccc12)C(=O)N[C@@H](CCCCN)C(=O)N1CCC[C@H]1C(=O)NCC(N)=O [Compound 6, Lys^4-GnRH-III]
[1]
  % Inhibition of colony formation: 21%
[2]
  % Inhibition of colony formation: 40%
[3]
  % Inhibition of colony formation: 35%
[4]; 50 μM
  % Inhibition of colony formation: did not show any inhibition
[5]
  % Inhibition of colony formation: 40%
[6]; 10 μM
  % Inhibition of colony formation: 18%
[6]; 50 μM
  % Inhibition of colony formation: 35%
[7]
  % Inhibition of colony formation: 21%
[8]; 50 μM
  % Inhibition of colony formation: 0%
[8]; within the dose range used (1-50 μM)
  Effect on colony-forming ability: did not influence
Human tumor cell lines
  Inhibitory effect on colony formation compared with control D-Trp6-hGnRH: exceeded the inhibitory effect of control

## D-Phe2,D-Trp3,{D-Lys[n-poly(N-vinylpyrrolidone-co-maleic acid)-Gly-Phe-Leu-Gly-]}6.-GNRH [P-GFLG-1004]
[1]
  % Inhibition of colony formation: 46%
[4]; 30 μM
  % Inhibition of colony formation: 100%
[9]
  % Inhibition of cell division: 20%
[10]
  % Inhibition of cell division: 35%
[5]
  % Inhibition of colony formation: 44%
